Experimental data published in paper PMC8847695 (Frontiers in Chemistry, 2022).

Key:
Type in all cases: binding
IDO1 (1-435) = molecular target: T1, IDO1 (1-435) (Homo sapiens, UniProt P14902); assay: STD-NMR fragment screening, IDO1; conditions: 1 = hit, 0 = no hit
T1 construct: His-tag of pET15b with TEV site (thrombin site replaced) (cleaved yes); made in house; host or cells: E. coli Rosetta 2 (DE3) pLysS
Method: (§1) All fragments were stored at −20°C as solids in argon flushed glass bottles. For NMR screening, fragments were weighed and dissolved in DMSO-d6 to a stock concentration of 300 mM. Mother plates were prepared with a 100 mM concentration. From these plates, daughter plates were prepared with the fragments mixed in the plates to a concentration of 50 mM for each fragment. Daughter plates were opened a maximum of eight times. The plates were argon flushed and sealed with a HT121TS (HTA) and Foil Heat Seal (Biozym).
(§2) For long time measurements, like the protein ^1H NMR spectrum, the buffer exchange was performed twice to reduce residual buffer peaks. All experiments were performed on a Bruker Avance III HDX 700 instrument, equipped with a 5 mm Prodigy TCI cryo-probehead. For every protein, a standard ^1H NMR experiment with 1 k scans and water suppression through presaturation was performed. […] The on-resonance frequency, which was determined from the ^1H NMR spectra of the protein, was between 0.5 and 0.6 ppm; 40 ppm was used as the off-resonance frequency. For an interleaved acquisition of the on- and off-resonance, a pseudo-2D scheme was applied. The saturation was done by Gaussian pulses with a length of 50 ms and 60 dB of attenuation, with an interpulse delay of 1 ms leading to an excitation bandwidth of about 42 Hz. The screening was done with 16 scans of on- and off-resonance scans each, with a 3 s saturation time. The samples contained final concentrations of 20 µM protein, 10% (^V/V) DMSO-d6, and 1 mM of each of the two fragments. A ^1H-NMR experiment was performed for each compound to act as a reference spectrum in the STD experiments. All NMR experiments were carried out at 25°C.
(§3) Fifteen of these compounds contain the same halogen twice. No compound bears mixtures of different halogen atoms. Four proteins (AAK1, CAMK1G, IDO1, and DOT1L) were screened against this HEFLib using STD-NMR. A fragment was considered a hit if the peak intensity in the difference spectrum was three times higher than the local background noise. […] Chemical compatibility and peak complementarity were assured for these mixtures. Samples containing more than two fragments were avoided to minimize the possible target competition and to decrease the risk of fragment interactions. […] The ^1H reference NMR spectrum of the mixture is shown in red for comparison. […] As fragment mixtures can lead to competitive effects between their fragments, it is not advised to use the quantification of peak mixtures for hit ranking.

DOT1L (1-416) = molecular target: T2, DOT1L (1-416) (Homo sapiens, UniProt Q8TEK3); assay: STD-NMR fragment screening, DOT1L; conditions: 1 = hit, 0 = no hit
T2 construct: made in house; host or cells: E. coli BL21 (DE3) pLysS
T2 sequence (Q8TEK3 1-416): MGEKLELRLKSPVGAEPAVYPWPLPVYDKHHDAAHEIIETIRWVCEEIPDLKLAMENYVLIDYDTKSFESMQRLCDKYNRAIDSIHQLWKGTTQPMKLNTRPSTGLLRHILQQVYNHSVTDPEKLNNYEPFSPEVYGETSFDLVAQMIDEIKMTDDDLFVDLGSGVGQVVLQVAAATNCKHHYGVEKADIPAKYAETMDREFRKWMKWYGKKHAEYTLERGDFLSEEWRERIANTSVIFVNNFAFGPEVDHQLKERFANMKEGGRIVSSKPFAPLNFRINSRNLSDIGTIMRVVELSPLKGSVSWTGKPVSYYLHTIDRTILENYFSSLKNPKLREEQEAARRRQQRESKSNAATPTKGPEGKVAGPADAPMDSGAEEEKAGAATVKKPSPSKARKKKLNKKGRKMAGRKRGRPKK
Method: as §1, §2, §3

CAMK1G (1-320) = molecular target: T3, CAMK1G (1-320) (Homo sapiens, UniProt Q96NX5); assay: STD-NMR fragment screening, CAMK1G; conditions: 1 = hit, 0 = no hit
T3 construct: made in house; host or cells: E. coli BL21 (DE3) pLysS
T3 sequence (Q96NX5 1-320): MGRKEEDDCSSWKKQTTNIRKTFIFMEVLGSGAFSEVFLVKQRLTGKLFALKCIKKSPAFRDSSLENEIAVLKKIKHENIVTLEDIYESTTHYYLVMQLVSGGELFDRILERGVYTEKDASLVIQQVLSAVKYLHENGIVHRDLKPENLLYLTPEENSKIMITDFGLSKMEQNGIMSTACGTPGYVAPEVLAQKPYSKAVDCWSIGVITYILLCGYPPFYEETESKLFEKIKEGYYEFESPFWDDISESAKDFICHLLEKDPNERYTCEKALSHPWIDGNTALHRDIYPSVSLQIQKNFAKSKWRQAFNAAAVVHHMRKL
Method: as §1, §2, §3

AAK1 (121-471) = AAK1 (121-471) (Homo sapiens, UniProt Q2M2I8); assay: STD-NMR fragment screening, AAK1; conditions: for AAK1 (STD-NMR hit flag): 1 = hit, 0 = no hit
AAK1 (121-471), sequence (Q2M2I8 46-315 limits assumed): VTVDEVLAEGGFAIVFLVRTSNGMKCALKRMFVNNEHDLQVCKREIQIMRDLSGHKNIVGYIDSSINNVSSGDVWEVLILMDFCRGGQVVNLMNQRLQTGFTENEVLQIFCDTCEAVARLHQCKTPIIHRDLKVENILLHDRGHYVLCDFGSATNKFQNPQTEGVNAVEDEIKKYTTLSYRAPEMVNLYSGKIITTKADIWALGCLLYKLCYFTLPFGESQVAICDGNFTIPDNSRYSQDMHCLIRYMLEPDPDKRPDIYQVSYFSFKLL
Method: as §1, §2, §3

T1 sequence (P14902 whole entry, the tested form may be a part): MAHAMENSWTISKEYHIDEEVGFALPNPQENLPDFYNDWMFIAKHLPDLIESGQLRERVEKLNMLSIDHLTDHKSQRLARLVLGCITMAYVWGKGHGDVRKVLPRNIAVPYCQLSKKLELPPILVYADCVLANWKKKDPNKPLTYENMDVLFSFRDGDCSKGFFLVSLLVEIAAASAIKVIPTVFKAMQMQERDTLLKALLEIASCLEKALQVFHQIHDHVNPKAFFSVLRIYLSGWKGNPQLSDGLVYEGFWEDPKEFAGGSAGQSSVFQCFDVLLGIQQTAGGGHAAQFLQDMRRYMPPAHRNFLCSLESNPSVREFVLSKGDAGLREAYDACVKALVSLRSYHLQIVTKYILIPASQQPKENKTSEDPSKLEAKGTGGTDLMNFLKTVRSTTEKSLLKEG

Row | SMILES | IDO1 (STD-NMR hit flag) (IDO1 (1-435)) | DOT1L (STD-NMR hit flag) (DOT1L (1-416)) | CAMK1G (STD-NMR hit flag) (CAMK1G (1-320)) | AAK1 (STD-NMR hit flag) (AAK1 (121-471)) | STD-NMR hit (AAK1 (121-471); 1 mM fragment, 20 µM protein, hit if peak in difference spectrum three times higher than local noise)
1 | O=C(O)c1ccnc(Cl)c1 [Fragment B02291239] | 0 | 0 | 0 | 0 | 
2 | O=C(O)c1cncc(Cl)n1 [Fragment B02289611] | 0 | 0 | 0 | 0 | 
3 | Oc1ccc(Cl)cc1 [Fragment B02294485] | 0 | 0 | 0 | 0 | 
4 | CNc1cc(Cl)c2c(c1)OCO2 [Fragment B02294481] | 0 | 0 | 0 | 0 | 
5 | O=C1Nc2cccc(Cl)c2C1=O [Fragment B02291255] | 0 | 0 | 0 | 0 | 
6 | COc1cc(Cl)cnc1OC [Fragment B02297394] | 1 | 0 | 1 | 1 | 
7 | Brc1cnc(N2CCNCC2)nc1 [Fragment B02297422] | 0 | 0 | 1 | 1 | 
8 | Cn1c(Cl)c(C#N)c(=O)n(C)c1=O [Fragment B02291234] | 1 | 1 | 1 | 1 | 
9 | Oc1coc(O)c1Br [Fragment B02291100] | 0 | 0 | 0 | 0 | 
10 | O=C(O)c1c(I)ccnc1F [Fragment B02290658] | 0 | 0 | 0 | 0 | 
11 | O=C(O)c1cncc(Cl)c1 [Fragment B02289604] | 0 | 0 | 0 | 1 | 
12 | COc1ncc(C(=O)O)cc1Cl [Fragment B02297423] | 1 | 0 | 1 | 1 | 
13 | Oc1ccc(Cl)cc1 [Fragment 4485] |  |  |  |  | none of the signals of fragment 4485 (Signal 4 and 5) are distinguishable from the baseline noise
14 | Nc1ccc(Br)c(C(=O)O)n1 [Fragment B02297395] | 0 | 0 | 0 | 0 | 
15 | Clc1ccncc1 [Fragment B02291269] | 0 | 0 | 0 | 0 | 
16 | O=C(O)c1cncc(Br)c1 [Fragment B02291261] | 0 | 1 | 0 | 1 | 
17 | OCc1ccc(Cl)nc1 [Fragment B02289606] | 0 | 0 | 0 | 0 | 

Row | SMILES | IDO1 (STD-NMR hit flag) (IDO1 (1-435)) | DOT1L (STD-NMR hit flag) (DOT1L (1-416)) | CAMK1G (STD-NMR hit flag) (CAMK1G (1-320)) | AAK1 (STD-NMR hit flag) (AAK1 (121-471)) | STD-NMR hit (AAK1 (121-471); 1 mM fragment, 20 µM protein, hit if peak in difference spectrum three times higher than local noise)
18 | Cc1n[nH]c(C)c1I [Fragment B02290459] | 1 | 1 | 1 | 1 | 
19 | Nc1cnccc1Br [Fragment B02297424] | 0 | 0 | 1 | 1 | 
20 | FC(F)(F)c1cnc(Cl)nc1 [Fragment B02294482] | 0 | 0 | 0 | 0 | 
21 | Clc1n[nH]c2ccccc12 [Fragment B02291265] | 0 | 0 | 1 | 1 | 
22 | O=c1[nH]c2ccc(Cl)nc2[nH]1 [Fragment B02290474] | 0 | 0 | 0 | 1 | 
23 | Cn1ncc(I)c1C(=O)NN [Fragment B02297766] | 0 | 0 | 0 | 0 | 
24 | Clc1ncnc2cc[nH]c12 [Fragment B02289595] | 0 | 0 | 1 | 1 | 
25 | CC(=O)c1c[nH]c2ncnc(Cl)c12 [Fragment B02290661] | 1 | 0 | 1 | 1 | 
26 | COc1ccc(I)cc1CNCCO [Fragment B02290112] | 0 | 0 | 0 | 0 | 
27 | NCc1cc(Cl)cc(Cl)c1N [Fragment B02290090] | 0 | 0 | 0 | 0 | 
28 | O=C(O)c1cc(Cl)c[nH]1 [Fragment B02291221] | 0 | 0 | 0 | 0 | 
29 | [O-][n+]1ccc(Cl)cc1 [Fragment B02297421] | 0 | 0 | 0 | 0 | 
30 | CN(N)c1ncc(C(F)(F)F)cc1Cl [Fragment B02290089] | 0 | 0 | 0 | 0 | 
31 | Cn1ncc(Br)c1C(=O)O [Fragment B02290116] | 1 | 0 | 0 | 0 | 
32 | O=C(O)c1cccc(Cl)n1 [Fragment B02289597] | 0 | 0 | 0 | 0 | 
33 | O=C(O)c1cc(Br)c(O)cc1O [Fragment B02297413] | 1 | 0 | 0 | 1 | 
